Eight compounds from patent publication US20180256592A1, “ANTIBACTERIAL COMPOSITIONS” (priority 2015, published 2018) can be followed below.

Some results are limits rather than exact numbers.

Holding throughout (format): cell-based
Assay [1] has as its system highly resistant gram negative bacterial strains. Nature of the assay: MIC by agar dilution (MHA, CLSI), whole strain panel of Table 1. To be noted: for MIC: read-out: MICs when used alone. Here is the method:
(§1) The antibacterial activity of combinations according to the invention was investigated against various bacterial strains. In a typical study, minimum inhibitory concentrations (MICs) were determined using Muller Hinton Agar (MHA) (BD, USA) according to Clinical and Laboratory Standards Institute (CLSI) recommendations, (Clinical and Laboratory Standards Institute (CLSI), Performance Standards for Antimicrobial Susceptibility Testing, 20th Informational Supplement, M 100-S20, Volume 30, No. 1, 2010). In short, the inocula were adjusted to deliver about […] colony forming units (CFU) per spot with a multipoint inoculator (Applied Quality Services, UK). The plates were pored with doubling concentration range of the test combinations according to invention containing MHA. The plates were inoculated and were incubated at 35° C. for 18 hours.
Background: In agar dilution the substance is mixed into plates at graded concentrations.

The test system of assay [2] is Klebsiella H 521 (KPC, class A). The assay is described as follows: MIC by agar dilution (MHA, CLSI). The procedure: as §1
Assay [3] relates to Klebsiella J 130 (SHV, OMP). The assay is described as follows: MIC by agar dilution (MHA, CLSI). Here is the method:
as §1

Assay [4] relates to Klebsiella H 515 (KPC, class A). The assay is described as follows: MIC by agar dilution (MHA, CLSI). The procedure:
as §1

The subject of assay [5] is Klebsiella H 523 (KPC, class A). Nature of the assay: MIC by agar dilution (MHA, CLSI). The procedure: as §1
The subject of assay [6] is Klebsiella J 117 (SHV, OMP). The assay is described as follows: MIC by agar dilution (MHA, CLSI). Here is the method: as §1
The test system of assay [7] is Klebsiella J 102 (TEM, SHV, OMP). Nature of the assay: MIC by agar dilution (MHA, CLSI). Here is the method:
as §1

Assay [8] has as its system KP S 440 (OXA 181, SHV, TEM, CTX-M 1). The assay is described as follows: MIC by agar dilution (MHA, CLSI). The procedure: as §1
Assay [9] has as its system Klebsiella H 520 (KPC, class A). Nature of the assay: MIC by agar dilution (MHA, CLSI). The procedure: as §1
Another assay deals with NCTC KP 13442 (OXA-48). Nature of the assay: MIC by agar dilution (MHA, CLSI). The procedure:
as §1

The subject of assay [10] is Klebsiella J 101 (TEM, SHV, OMP). The assay is described as follows: MIC by agar dilution (MHA, CLSI). The procedure:
as §1

For assay [11], the system named is KP S 691 (OXA 181, SHV, TEM, CTX-M 1). The assay is described as follows: MIC by agar dilution (MHA, CLSI). The procedure: as §1
[12] abbreviates: KP S 691 (OXA 181, SHV, TEM, CTX-M 1), + clavulanic acid 4 μg/ml.

Turning to `CC1(C)[C@H](C(=O)O)N2C(=O)C[C@H]2S1(=O)=O` [Sulbactam, sulbactam], the MIC in assay [1] is > 32 µg/mL.
In the case of `C[C@@H](O)[C@H]1C(=O)N2C(C(=O)O)=C(SCCN=CN)C[C@H]12` [Imipenem], the MIC in assay [2] (drug alone) was > 32 µg/mL; in [3] (drug alone), 4 µg/mL; in assay [4] (drug alone), 16 µg/mL; in assay [5] (drug alone), > 32 µg/mL; in [6] (drug alone), 2 µg/mL; in [7] (drug alone) it was 8 µg/mL. Also, the MIC in assay [8] (drug alone) was 2 µg/mL; in assay [9] (drug alone), > 32 µg/mL; in the assay on NCTC KP 13442 (OXA-48) (drug alone), 2 µg/mL; in assay [10] (drug alone) it was 4 µg/mL.
In the case of `C=CC1=C(C(=O)O)N2C(=O)[C@@H](NC(=O)/C(=N\O)c3csc(N)n3)[C@H]2SC1` [Cefdinir, cefdinir], the “MIC in presence of Clavulanic acid (4 μg/ml)” value was >32 µg/mL in [2] (+ clavulanic acid 4 μg/ml); 16 µg/mL in assay [3] (+ clavulanic acid 4 μg/ml); >32 µg/mL in [4] (+ clavulanic acid 4 μg/ml); >32 µg/mL in [5] (+ clavulanic acid 4 μg/ml); >32 µg/mL in assay [11] (setting [12]); 0.5 µg/mL in assay [6] (+ clavulanic acid 4 μg/ml). The “MIC in presence of Clavulanic acid (4 μg/ml)” value in assay [7] (+ clavulanic acid 4 μg/ml) was >32 µg/mL; in assay [8] (+ clavulanic acid 4 μg/ml), >32 µg/mL; in [9] (+ clavulanic acid 4 μg/ml), >32 µg/mL; in the assay on NCTC KP 13442 (OXA-48) (+ clavulanic acid 4 μg/ml), 32 µg/mL; in assay [10] (+ clavulanic acid 4 μg/ml), >32 µg/mL. The MIC in assay [2] (drug alone), in [3] (drug alone), in [4] (drug alone), in [5] (drug alone), in assay [11] and in assay [6] (drug alone) was > 32 µg/mL throughout. The MIC in assay [7] (drug alone) was > 32 µg/mL; in [8] (drug alone), > 32 µg/mL; in assay [9] (drug alone), > 32 µg/mL; in the assay with NCTC KP 13442 (OXA-48) (drug alone), 32 µg/mL; in [10] (drug alone) it was > 32 µg/mL.
With `COCC1=C(C(=O)O)N2C(=O)[C@@H](NC(=O)/C(=N\OC)c3csc(N)n3)[C@H]2SC1` [Cefpodoxime, cefpodoxime], the “MIC of Cefpodoxime in presence of Clavulanic acid (4 μg/ml)” value in [2] (+ clavulanic acid 4 μg/ml) is >32 μ/ml; in assay [3] (+ clavulanic acid 4 μg/ml), 32 μ/ml; in assay [4] (+ clavulanic acid 4 μg/ml), >32 μ/ml; in assay [5] (+ clavulanic acid 4 μg/ml) it was >32 μ/ml; in [11] (setting [12]), >32 μ/ml; in assay [6] (+ clavulanic acid 4 μg/ml), 4 μ/ml. The “MIC of Cefpodoxime in presence of Clavulanic acid (4 μg/ml)” value in assay [7] (+ clavulanic acid 4 μg/ml) was >32 μ/ml; in assay [8] (+ clavulanic acid 4 μg/ml), >32 μ/ml; in assay [9] (+ clavulanic acid 4 μg/ml), >32 μ/ml; in the assay on NCTC KP 13442 (OXA-48) (+ clavulanic acid 4 μg/ml) it was 1 μ/ml; in assay [10] (+ clavulanic acid 4 μg/ml) it was >32 μ/ml. The “MIC of Cefpodoxime, Control (Cefpodoxime alone)” value in assay [2] (drug alone) was >32 μ/ml; in assay [3] (drug alone), >32 μ/ml; in assay [4] (drug alone) it was >32 μ/ml; in [5] (drug alone) it was >32 μ/ml; in assay [11] (KP S 691 (OXA 181, SHV, TEM, CTX-M 1), drug alone), >32 μ/ml; in assay [6] (drug alone), >32 μ/ml. Moreover, the “MIC of Cefpodoxime, Control (Cefpodoxime alone)” value in assay [7] (drug alone) is recorded as >32 μ/ml; in [8] (drug alone) it was >32 μ/ml; in assay [9] (drug alone), >32 μ/ml; in the assay on NCTC KP 13442 (OXA-48) (drug alone), 4 μ/ml; in [10] (drug alone), >32 μ/ml.
`C=CC1=C(C(=O)O)N2C(=O)[C@@H](NC(=O)/C(=N\OCC(=O)O)c3csc(N)n3)[C@H]2SC1` [Cefixime, cefixime]: the “MIC in presence of Clavulanic acid (4 μg/ml)” value stood at 16 µg/mL in assay [2] (+ clavulanic acid 4 μg/ml); 16 µg/mL in assay [3] (+ clavulanic acid 4 μg/ml); 16 µg/mL in [4] (+ clavulanic acid 4 μg/ml); 16 µg/mL in [5] (+ clavulanic acid 4 μg/ml); 16 µg/mL in assay [11] (setting [12]); 0.5 µg/mL in assay [6] (+ clavulanic acid 4 μg/ml). The “MIC in presence of Clavulanic acid (4 μg/ml)” value was >32 µg/mL in assay [7] (+ clavulanic acid 4 μg/ml); 16 µg/mL in assay [8] (+ clavulanic acid 4 μg/ml); 16 µg/mL in assay [9] (+ clavulanic acid 4 μg/ml); 0.25 µg/mL with NCTC KP 13442 (OXA-48) (+ clavulanic acid 4 μg/ml); >32 µg/mL in assay [10] (+ clavulanic acid 4 μg/ml). For the same compound, the MIC in assay [2] (drug alone), in assay [3] (drug alone), in [4] (drug alone), in assay [5] (drug alone), in assay [11] and in assay [6] (drug alone) was > 32 µg/mL throughout. The MIC was > 32 µg/mL in assay [7] (drug alone); > 32 µg/mL in [8] (drug alone); > 32 µg/mL in assay [9] (drug alone); 0.25 µg/mL with NCTC KP 13442 (OXA-48) (drug alone); > 32 µg/mL in assay [10] (drug alone).
As for `O=C(O)[C@H]1/C(=C/CO)O[C@@H]2CC(=O)N21` [Clavulanic acid, clavulanic acid], the MIC in assay [1] was > 32 µg/mL.
Take `C[C@]1(Cn2ccnn2)[C@H](C(=O)O)N2C(=O)C[C@H]2S1(=O)=O` [Tazobactam, tazobactam]: the MIC in assay [1] was > 32 µg/mL.
For the compound `Nc1nc(/C(=C/CC(=O)O)C(=O)N[C@@H]2C(=O)N3C(C(=O)O)=CCS[C@H]23)cs1` [Ceftibuten, ceftibuten], the “MIC in presence of Clavulanic acid (4 μg/ml)” value in [2] (+ clavulanic acid 4 μg/ml) was 4 µg/mL; in assay [3] (+ clavulanic acid 4 μg/ml), 4 µg/mL; in assay [4] (+ clavulanic acid 4 μg/ml) it was 4 µg/mL; in [5] (+ clavulanic acid 4 μg/ml), 4 µg/mL; in assay [11] (setting [12]), 1 µg/mL; in assay [6] (+ clavulanic acid 4 μg/ml), 0.12 µg/mL. Also, the “MIC in presence of Clavulanic acid (4 μg/ml)” value in assay [7] (+ clavulanic acid 4 μg/ml) turned out to be 8 µg/mL; in assay [8] (+ clavulanic acid 4 μg/ml) it was 2 µg/mL; in assay [9] (+ clavulanic acid 4 μg/ml), 4 µg/mL; with NCTC KP 13442 (OXA-48) (+ clavulanic acid 4 μg/ml), 0.12 µg/mL; in [10] (+ clavulanic acid 4 μg/ml), 8 µg/mL. In addition, the “MIC in presence of Sulbactam (4 μg/ml)” value in assay [2] (+ sulbactam 4 μg/ml) is 16 µg/mL; in [3] (+ sulbactam 4 μg/ml) it was >32 µg/mL; in [4] (+ sulbactam 4 μg/ml), 8 µg/mL; in assay [5] (+ sulbactam 4 μg/ml), 4 µg/mL; in assay [11] (KP S 691 (OXA 181, SHV, TEM, CTX-M 1), + sulbactam 4 μg/ml), 2 µg/mL; in [6] (+ sulbactam 4 μg/ml) it was 32 µg/mL. The “MIC in presence of Sulbactam (4 μg/ml)” value in assay [7] (+ sulbactam 4 μg/ml) turned out to be 32 µg/mL; in assay [8] (+ sulbactam 4 μg/ml), 4 µg/mL; in assay [9] (+ sulbactam 4 μg/ml) it was 8 µg/mL; in the assay with NCTC KP 13442 (OXA-48) (+ sulbactam 4 μg/ml), 0.25 µg/mL; in assay [10] (+ sulbactam 4 μg/ml), 32 µg/mL. Further, the “MIC in presence of Tazobactam (4 μg/ml)” value is 16 µg/mL in [2] (+ tazobactam 4 μg/ml); >32 µg/mL in assay [3] (+ tazobactam 4 μg/ml); 8 µg/mL in assay [4] (+ tazobactam 4 μg/ml); 8 µg/mL in assay [5] (+ tazobactam 4 μg/ml); 2 µg/mL in assay [11] (KP S 691 (OXA 181, SHV, TEM, CTX-M 1), + tazobactam 4 μg/ml); 32 µg/mL in [6] (+ tazobactam 4 μg/ml). In addition, the “MIC in presence of Tazobactam (4 μg/ml)” value was found to be 32 µg/mL in assay [7] (+ tazobactam 4 μg/ml); 4 µg/mL in assay [8] (+ tazobactam 4 μg/ml); 16 µg/mL in assay [9] (+ tazobactam 4 μg/ml); 0.25 µg/mL in the assay on NCTC KP 13442 (OXA-48) (+ tazobactam 4 μg/ml); 32 µg/mL in [10] (+ tazobactam 4 μg/ml). Besides, the MIC in assay [2] (drug alone) is 32 µg/mL; in assay [3] (drug alone), > 32 µg/mL; in assay [4] (drug alone), 16 µg/mL; in [5] (drug alone), 16 µg/mL; in assay [11], 8 µg/mL; in assay [6] (drug alone), 32 µg/mL. For the same compound, the MIC in [7] (drug alone) was 32 µg/mL; in [8] (drug alone) it was 16 µg/mL; in assay [9] (drug alone), 32 µg/mL; in the assay with NCTC KP 13442 (OXA-48) (drug alone) it was 0.25 µg/mL; in assay [10] (drug alone) it was > 32 µg/mL. Moreover, the “change of MIC values of ceftibuten in the presence of clavulanic acid” value in assay [1] (strains of Table 1, clavulanic acid 4 μg/ml) is recorded as “significantly reduced”.
